According to patent US20120059240A1, “METHOD FOR PREPARATION OF MICELLAR HYBRID NANOPARTICLES FOR THERAPEUTIC AND DIAGNOSTIC APPLICATIONS AND COMPOSITIONS THEREOF” (MASSACHUSETTS INSTITUTE OF TECHNOLOGY, priority 2008, published 2012):

Test system: MDA-MB-435 human carcinoma cells
Assay: Intracellular drug delivery of DOX (fluorescence microscopy)
Format: cell-based
Conditions: after 30 min of incubation
Experimental: For in vitro studies, MDA-MB-435 human carcinoma cells were maintained in Dulbecco's Modified Eagle's Medium (DMEM) supplemented with 10% fetal bovine serum (FBS) and 100 μg/ml penicillin-streptomycin. For fluorescence microscopy, the cells (3000 cells per well) were seeded into 8-well chamber slides (Lab-Tek) overnight. The cells were then incubated with 50 μg of MHN or F3-MHN per well for 2 h (for intracellular targeting) and 50 μg of DOX-loaded F3-MHN (0.093 mg DOX per mg MHN) or 4.5 μg of free DOX (equivalent with DOX amount for DOX-loaded F3-MHN) physically mixed with 50 μg of F3-MHN per well for 30 min, 2 h, and 24 h (for intracellular drug delivery) at 37° C. in the presence of 10% FBS. For the intracellular targeting study, the cells were observed without any fixation using an inverted fluorescence microscope (Nikon, Tokyo, Japan). For the intracellular drug delivery study, the cells were fixed with 4% paraformaldehyde for 20 min, mounted in Vectashield Mounting Medium with 4′,6-diamidino-2-phenylindole (DAPI; Vector Laboratories, Burlingame, Calif.), and observed with a fluorescence microscope. […]

In the case of `COc1cccc2c1C(=O)c1c(O)c3c(c(O)c1C2=O)C[C@@](O)(C(=O)CO)C[C@@H]3O[C@H]1C[C@H](N)[C@H](O)[C@H](C)O1` [free DOX, doxorubicin], the “Location of DOX fluorescence signal in cells” value is reported as “almost all of the DOX fluorescence signal was observed in the cell nuclei”.
